From ChEMBL document CHEMBL3994629, “Synthesis and biological evaluation of a water-soluble phosphate prodrug salt and structural analogues of KGP94, a lead inhibitor of cathepsin L” (Bioorg Med Chem Lett, 2017)
Activity calls are given as the source filed them. The rule behind the calls is not given here.

Assays:
Cathepsin B [1] = molecular target: T1, Cathepsin B (Homo sapiens, UniProt P07858); assay: Inhibition of human liver cathepsin-B using Z-RR-AMC as substrate preincubated for 5 mins followed by substrate addition measured for 5 mins by fluorometric method
Cathepsin B [2] = molecular target: T1, Cathepsin B; assay: Inhibition of human liver cathepsin-B at 10 uM using Z-RR-AMC as substrate preincubated for 5 mins followed by substrate addition measured for 5 mins by fluorometric method relative to control
Procathepsin L [3] = molecular target: T2, Procathepsin L (Homo sapiens, UniProt P07711); assay: Inhibition of human liver cathepsin-L using Z-FR-AMC as substrate preincubated for 5 mins followed by substrate addition measured at 15 sec interval for 5 mins by fluorometric method
Target sequence in this assay (P07711 whole entry): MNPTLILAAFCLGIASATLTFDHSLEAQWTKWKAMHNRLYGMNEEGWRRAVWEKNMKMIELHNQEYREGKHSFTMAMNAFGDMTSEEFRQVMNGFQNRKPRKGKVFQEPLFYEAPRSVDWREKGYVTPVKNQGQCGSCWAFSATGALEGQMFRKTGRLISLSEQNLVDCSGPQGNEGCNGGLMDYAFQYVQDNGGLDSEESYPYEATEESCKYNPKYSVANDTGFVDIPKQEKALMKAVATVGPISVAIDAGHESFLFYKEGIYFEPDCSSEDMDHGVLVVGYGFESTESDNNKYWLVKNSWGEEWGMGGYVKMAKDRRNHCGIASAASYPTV

Procathepsin L [4] = molecular target: T2, Procathepsin L; assay: Inhibition of human liver cathepsin-L at 10 uM using Z-FR-AMC as substrate preincubated for 5 mins followed by substrate addition measured at 15 sec interval for 5 mins in presence of 0.01% Brij35 by fluorometric method relative to control
Target sequence in this assay (P07711 114-333 limits assumed): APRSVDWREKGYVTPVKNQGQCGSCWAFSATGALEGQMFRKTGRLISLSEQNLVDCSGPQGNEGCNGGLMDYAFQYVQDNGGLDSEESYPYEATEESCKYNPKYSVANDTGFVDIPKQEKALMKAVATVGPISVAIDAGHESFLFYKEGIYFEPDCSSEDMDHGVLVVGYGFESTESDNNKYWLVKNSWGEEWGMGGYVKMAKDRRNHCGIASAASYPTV

Procathepsin L [5] = molecular target: T2, Procathepsin L; assay: Time-dependent inhibition of human liver cathepsin-L assessed as dissociation constant up to 20 uM using 10 uM Z-FR-AMC as substrate preincubated with enzyme followed by substrate addition by fluorometric method
Target sequence in this assay (P07711 114-333 limits assumed): as above

Procathepsin L [6] = molecular target: T2, Procathepsin L; assay: Time-dependent inhibition of human liver cathepsin-L up to 20 uM using Z-FR-AMC as substrate preincubated with enzyme followed by substrate addition by fluorometric method
Target sequence in this assay (P07711 114-333 limits assumed): as above

Procathepsin L [7] = molecular target: T2, Procathepsin L; assay: Inhibition of human liver cathepsin-L at 10 uM using Z-FR-AMC as substrate preincubated for 5 mins followed by substrate addition measured at 15 sec interval for 5 mins in presence of 0.1% Tween or 0.1% CHAPS by fluorometric method relative to control
Target sequence in this assay (P07711 114-333 limits assumed): as above

Procathepsin L [8] = molecular target: T2, Procathepsin L; assay: Covalent/reversible inhibition of human liver cathepsin-L using Z-FR-AMC as substrate preincubated for 5 mins followed by substrate addition measured at 15 sec interval for 5 mins by Morrison's equation analysis; settings: read-out: Ki(app)
Target sequence in this assay (P07711 whole entry): as the sequence (P07711 whole entry) above

Procathepsin L [9] = molecular target: T2, Procathepsin L; assay: Time-dependent inhibition of human liver cathepsin-L assessed as association constant up to 20 uM using 10 uM Z-FR-AMC as substrate preincubated with enzyme followed by substrate addition by fluorometric method
Target sequence in this assay (P07711 114-333 limits assumed): as the sequence (P07711 114-333 limits assumed) above

MDA-MB-231 = assay: Anti-migratory activity against human MDA-MB-231 cells assessed as delay in wound closure at 15 uM after 42 hrs by scratch assay; format: functional, cell-based
Procathepsin L [10] = molecular target: T2, Procathepsin L; assay: Time-dependent inhibition of human liver cathepsin-L assessed as association constant up to 20 uM using 5 uM Z-FR-AMC as substrate preincubated with enzyme followed by substrate addition by fluorometric method
Target sequence in this assay (P07711 114-333 limits assumed): as above

[11] = Aqueous solubility of the compound in water at 4 g by reversed phase column chromatography; format: physicochemical
[12] = Cytotoxicity against HUVEC assessed as growth inhibition after 48 hrs by SRB assay; format: cell-based; settings: human, HUVEC cells
[13] = Solubility in water; format: physicochemical; settings: buffer
[14] = Prodrug activation in pH 8.6 glycine buffer assessed as KGP94 formation after 48 hrs at 37 degC in absence of alkaline phosphatase by HPLC method
[15] = Stability in pH 8.6 glycine buffer assessed as compound hydrolysis after 48 hrs at 37 degC in absence of alkaline phosphatase by HPLC method
[16] = Stability in water assessed as compound hydrolysis at 20 uM after 1 week at 4 degC by HPLC method; format: physicochemical; settings: buffer, 168 h
[17] = Prodrug activation in water assessed as assessed as KGP94 formation at 20 uM after 1 week at 4 degC by HPLC method
[18] = Retention time in pH 8.6 glycine buffer after 48 hrs at 37 degC by HPLC method
[19] = Aqueous solubility of the compound in water at 2.02 mg by reversed phase column chromatography; format: physicochemical
[20] = molecular target: Matrix metalloproteinase-9 (Homo sapiens) (UniProt P14780); assay: Inhibition of recombinant human MMP9 at 1 uM using NFF2 as substrate by fluorometric method relative to control
Matrix metalloproteinase-9 (Homo sapiens), sequence (P14780 whole entry): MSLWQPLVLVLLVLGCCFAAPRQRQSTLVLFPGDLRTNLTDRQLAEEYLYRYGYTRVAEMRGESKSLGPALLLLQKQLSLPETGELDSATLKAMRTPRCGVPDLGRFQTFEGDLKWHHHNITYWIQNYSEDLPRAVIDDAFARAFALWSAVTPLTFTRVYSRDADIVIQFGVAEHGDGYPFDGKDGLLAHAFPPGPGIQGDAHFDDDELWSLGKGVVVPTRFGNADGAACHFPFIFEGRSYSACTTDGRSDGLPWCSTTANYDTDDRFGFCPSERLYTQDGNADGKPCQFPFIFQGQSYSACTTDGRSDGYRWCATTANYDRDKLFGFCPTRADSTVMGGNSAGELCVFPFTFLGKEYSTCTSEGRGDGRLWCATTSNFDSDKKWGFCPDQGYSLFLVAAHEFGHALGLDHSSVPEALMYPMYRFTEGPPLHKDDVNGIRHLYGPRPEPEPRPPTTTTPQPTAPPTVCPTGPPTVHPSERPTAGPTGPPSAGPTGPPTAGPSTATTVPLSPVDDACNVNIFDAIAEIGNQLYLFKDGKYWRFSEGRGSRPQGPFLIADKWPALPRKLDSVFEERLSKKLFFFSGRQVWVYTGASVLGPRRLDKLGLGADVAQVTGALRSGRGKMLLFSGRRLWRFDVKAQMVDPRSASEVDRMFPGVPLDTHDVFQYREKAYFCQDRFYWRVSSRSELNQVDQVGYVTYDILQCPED

[21] = molecular target: Matrix metalloproteinase-9 (Homo sapiens) (UniProt P14780); assay: Inhibition of recombinant human MMP9 at 10 uM using NFF2 as substrate by fluorometric method relative to control
Caspase-3 (Homo sapiens) = molecular target: T3, Caspase-3 (Homo sapiens) (UniProt P42574); assay: Inhibition of recombinant human caspase-3 at 1 uM using Ac-DMQD-AMC as substrate measured at 15 sec interval over 30 mins by fluorogenic assay relative to control
T3 sequence (whole entry): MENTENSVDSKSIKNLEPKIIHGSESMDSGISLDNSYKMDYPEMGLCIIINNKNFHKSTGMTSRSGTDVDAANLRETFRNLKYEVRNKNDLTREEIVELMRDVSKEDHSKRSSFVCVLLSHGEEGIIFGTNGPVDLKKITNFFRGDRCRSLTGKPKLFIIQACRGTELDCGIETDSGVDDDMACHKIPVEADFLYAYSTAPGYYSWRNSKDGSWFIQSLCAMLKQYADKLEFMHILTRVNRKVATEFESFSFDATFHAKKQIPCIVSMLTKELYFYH

IC50 (Cathepsin B [1])	inhibition (Cathepsin B [2])	IC50 (Procathepsin L [3])	inhibition (Procathepsin L [4])	inhibition (Procathepsin L [7])	Compound	Activity (MDA-MB-231)	other results
> 10 µM	> 50%	≥ 10 µM	23%	–	NC(=S)N/N=C(\c1cc(O)cc(O)c1)c1cccc(Br)c1	–	–
> 10 µM	> 50%	0.202 µM	94%	Active	NC(=S)N/N=C(\c1cccc(O)c1)c1cc(Br)cc(Br)c1	Active	K (Procathepsin L [5]): 1 ×10⁻³ /s; TDI (Procathepsin L [6]): Active; Ki (Procathepsin L [8]): 0.0084 µM; K (Procathepsin L [9]): 1.5 ×10³ /M/s; K (Procathepsin L [10]): 2 ×10³ /M/s
> 10 µM	> 50%	> 10 µM	40%	–	NC(=S)NN=C(c1cc(O)cc(Br)c1)c1cc(O)cc(Br)c1	–	–
> 10 µM	> 50%	≥ 10 µM	52%	–	COc1cc(OC)cc(/C(=N\NC(N)=S)c2cc(Br)cc(Br)c2)c1	–	–
–	–	–	88 to 91%	Active	NC(=S)N/N=C(\c1cccc(O)c1)c1cccc(Br)c1	Active	solubility [19]: < 0.67 mg/mL; Ki (Procathepsin L [8]): 0.0037 µM; inhibition [20]: 3%; inhibition [21]: 15%; inhibition (Caspase-3 (Homo sapiens)): 4.5%; Retention time [18]: 5.4 min
> 10 µM	> 50%	> 10 µM	46%	–	COc1cc(OC)cc(/C(=N\NC(N)=S)c2cccc(Br)c2)c1	–	–
> 10 µM	> 50%	> 10 µM	44%	–	NC(=S)N/N=C(\c1cc(O)cc(O)c1)c1cc(Br)cc(Br)c1	–	–

Compound	IC50 (Cathepsin B [1])	inhibition (Cathepsin B [2])	IC50 (Procathepsin L [3])	inhibition (Procathepsin L [4])	inhibition (Procathepsin L [7])	Activity (MDA-MB-231)	other results
NC(=S)N/N=C(/c1cccc(Br)c1)c1cccc(OP(=O)([O-])[O-])c1.[Na+].[Na+]	–	> 50%	> 10 µM	18%	< 50%	Active	solubility [11]: > 400 mg/mL; GI50 at 48 h [12]: 20.2 µM; solubility [13]: Soluble; Drug metabolism [14]: Metabolite detected; Drug degradation [15]: 5.6%; Stability [16]: Stable; Drug metabolism [17]: Metabolite not detected; Retention time [18]: 1.6 min
